Laboratory results published in patent publication US20060069132A1, “Azolecarboxamide herbicides” (priority 2004, published 2006).

How the values were obtained:
barnyardgrass [1] = experiment: Test B pre-/postemergence herbicide test; format: in vivo, Echinochloa crus-galli; settings: for Barnyardgrass plant response rating: postemergence, visual rating, scale 0 (no effect) to 100 (complete control)
In short: (§1)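 Greenhouse pot assay with simultaneous preemergence (treated seed) and postemergence (2–18 cm seedlings) applications of surfactant-containing, non-phytotoxic solvent formulations. Response scored visually 13–15 days later on a 0–100 scale, 100 meaning complete control.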

Surinam grass = experiment: Test B pre-/postemergence herbicide test; format: in vivo, Urochloa decumbens; settings: for Surinam Grass plant response rating: postemergence, visual rating, scale 0 (no effect) to 100 (complete control)
In short: (§2)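 Plants compared with untreated controls 13–15 days post-treatment and given a visual 0–100 injury score. Applications: preemergence to seeds; postemergence at 1- to 4-leaf (2–18 cm); paddy species flooded, 2-leaf stage. Vehicle non-phytotoxic, surfactant included.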

cocklebur = experiment: Test B pre-/postemergence herbicide test; format: in vivo, Xanthium strumarium; settings: for Cocklebur plant response rating: postemergence, visual rating, scale 0 (no effect) to 100 (complete control)
In short: as §1

corn = experiment: Test B pre-/postemergence herbicide test; format: in vivo, Zea mays; settings: for Corn plant response rating: postemergence, visual rating, scale 0 (no effect) to 100 (complete control)
In short: as §2

large crabgrass = experiment: Test B pre-/postemergence herbicide test; format: in vivo, Digitaria sanguinalis; settings: for Crabgrass, Large plant response rating: postemergence, visual rating, scale 0 (no effect) to 100 (complete control)
In short: as §2

giant foxtail = experiment: Test B pre-/postemergence herbicide test; format: in vivo, Setaria faberi; settings: for Foxtail, Giant plant response rating: postemergence, visual rating, scale 0 (no effect) to 100 (complete control)
In short: as §2

lambsquarters = experiment: Test B pre-/postemergence herbicide test; format: in vivo, Chenopodium album; settings: for Lambsquarters plant response rating: postemergence, visual rating, scale 0 (no effect) to 100 (complete control)
In short: as §2

morningglory = experiment: Test B pre-/postemergence herbicide test; format: in vivo, Ipomoea coccinea; settings: for Morningglory plant response rating: postemergence, visual rating, scale 0 (no effect) to 100 (complete control)
In short: as §1

pigweed = experiment: Test B pre-/postemergence herbicide test; format: in vivo, Amaranthus retroflexus; settings: for Pigweed plant response rating: postemergence, visual rating, scale 0 (no effect) to 100 (complete control)
In short: as §2

rice [2] = experiment: Test B pre-/postemergence herbicide test; format: in vivo, Oryza sativa; settings: preemergence
In short: as §1

velvetleaf = experiment: Test B pre-/postemergence herbicide test; format: in vivo, Abutilon theophrasti; settings: for Velvetleaf plant response rating: postemergence, visual rating, scale 0 (no effect) to 100 (complete control)
In short: as §2

blackgrass = experiment: Test B postemergence herbicide test; format: in vivo, Alopecurus myosuroides; settings: postemergence, visual rating, scale 0 (no effect) to 100 (complete control)
In short: (§3)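 Greenhouse test; postemergence application to plants at 1–4 leaves (2–18 cm); paddy species at 2 leaves; evaluated visually vs controls at 13–15 days; scale 0–100 (100 = complete control).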

wheat = experiment: Test B postemergence herbicide test; format: in vivo, Triticum aestivum; set-up: key to Wheat plant response rating: 0 = no effect, 100 = complete control; settings: postemergence, visual rating, scale 0 (no effect) to 100 (complete control)
In short: (§4)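 Scale 0–100: zero equals no visible effect, 100 complete control, judged by eye relative to controls. Timing: 13 to 15 days in greenhouse post-treatment. Growth stage at spraying: two leaves (paddy) or one to four leaves, 2–18 cm (postemergence).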

wild oat = experiment: Test B postemergence herbicide test; format: in vivo, Avena fatua; settings: postemergence, visual rating, scale 0 (no effect) to 100 (complete control)
In short: as §4

rice [3] = experiment: Test B flooded paddy test; format: in vivo, Oryza sativa; settings: 1000 g ai/ha, visual rating, scale 0 to 100 (0 no effect, 100 complete control), 13 to 15 days
In short: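 Formulated test chemicals went onto postemergence plants measuring 2 to 18 cm, at one to four leaves. For the paddy assay, species had reached two leaves. Scoring took place 13–15 days later by eye, relative to untreated plants, using 0 for no effect up to 100 for full control.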

[4] = tested on: small flower umbrella sedge; experiment: Test B flooded paddy test; format: in vivo, Cyperus difformis; settings: 1000 g ai/ha, visual rating, scale 0 to 100 (0 no effect, 100 complete control), 13 to 15 days
In short: as §3

ducksalad [5] = experiment: Test B flooded paddy test; format: in vivo, Heteranthera limosa; settings: 1000 g ai/ha, visual rating, scale 0 to 100 (0 no effect, 100 complete control), 13 to 15 days
In short: as §3

barnyardgrass [6] = experiment: Test B flooded paddy test; format: in vivo, Echinochloa crus-galli; settings: 1000 g ai/ha, visual rating, scale 0 to 100 (0 no effect, 100 complete control), 13 to 15 days
In short: as §3

rice [7] = experiment: Test C flooded paddy test; format: in vivo, Oryza sativa
In short: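 Postemergence sprays applied to plants 2 to 18 cm tall (1- to 4-leaf stage); paddy species grown to 2-leaf stage under flooding. After 12 to 14 days in greenhouse, visual rating versus untreated controls on 0–100 scale (0 no effect, 100 complete control).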

[8] = tested on: smallflower umbrella sedge; experiment: Test C flooded paddy test; format: in vivo, Cyperus difformis
ducksalad [9] = experiment: Test C flooded paddy test; format: in vivo, Heteranthera limosa
barnyardgrass [10] = experiment: Test C flooded paddy test; format: in vivo, Echinochloa crus-galli
In short: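 Scoring by eye, 12–14 days post-treatment, greenhouse-held plants vs. controls; 0 no effect, 100 complete control. Sprayed at 1–4 leaves (2–18 cm); paddy barnyardgrass at 2 leaves, flooded.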

[11] = 125 g ai/ha, 0 = no effect, 100 = complete control, preemergence
[12] = 500 g ai/ha, visual rating 0-100, 0 no effect, 100 complete control, preemergence
[13] = 62 g ai/ha, scale 0 to 100 (0 no effect, 100 complete control)
[14] = 125 g ai/ha, scale 0 to 100 (0 no effect, 100 complete control)
[15] = 250 g ai/ha, scale of 0 to 100, 0 is no effect, 100 is complete control
[16] = 500 g ai/ha, visual rating after 12 to 14 days, scale 0 to 100 (0 no effect, 100 complete control)

With `CCNC(=O)c1cccc(NC(=O)c2cn(C(C)(C)C)nc2CC)c1` [Compound 181] the “Barnyardgrass plant response rating (0 to 100 scale)” value (barnyardgrass [1]; [11]) was 30, the “Plant response rating, Barnyardgrass” value (barnyardgrass [1]; [12]) was 90 and the “Barnyardgrass plant response rating” value (barnyardgrass [1]; 125 g ai/ha) was 0. The “Barnyardgrass plant response rating” value (barnyardgrass [1]; 500 g ai/ha) was 10, the “Surinam Grass plant response rating (0 to 100 scale)” value (Surinam grass; [11]) was 30 and the “Plant response rating, Surinam Grass” value (Surinam grass; [12]) was 70. The “Surinam Grass plant response rating” value (Surinam grass; 125 g ai/ha) was 20, the “Surinam Grass plant response rating” value (Surinam grass; 500 g ai/ha) was 20 and the “Cocklebur plant response rating (0 to 100 scale)” value (cocklebur; [11]) was 10. For the same compound, the “Plant response rating, Cocklebur” value (cocklebur; [12]) was 20, the “Cocklebur plant response rating” value (cocklebur; 125 g ai/ha) was 20 and the “Cocklebur plant response rating” value (cocklebur; 500 g ai/ha) was 70. For the same compound, the “Corn plant response rating (0 to 100 scale)” value (corn; [11]) was 0, the “Plant response rating, Corn” value (corn; [12]) was 40 and the “Corn plant response rating” value (corn; 125 g ai/ha) was 20. For the same compound, the “Corn plant response rating” value (corn; 500 g ai/ha) was 20, the “Crabgrass, Large plant response rating (0 to 100 scale)” value (large crabgrass; [11]) was 50 and the “Plant response rating, Crabgrass, Large” value (large crabgrass; [12]) was 100. The “Crabgrass, Large plant response rating” value (large crabgrass; 125 g ai/ha) was 10, the “Crabgrass, Large plant response rating” value (large crabgrass; 500 g ai/ha) was 20 and the “Foxtail, Giant plant response rating (0 to 100 scale)” value (giant foxtail; [11]) was 20. For the same compound, the “Plant response rating, Foxtail, Giant” value (giant foxtail; [12]) was 100, the “Foxtail, Giant plant response rating” value (giant foxtail; 125 g ai/ha) was 20 and the “Foxtail, Giant plant response rating” value (giant foxtail; 500 g ai/ha) was 20. For the same compound, the “Lambsquarters plant response rating (0 to 100 scale)” value (lambsquarters; [11]) was 50, the “Plant response rating, Lambsquarters” value (lambsquarters; [12]) was 100 and the “Lambsquarters plant response rating” value (lambsquarters; 125 g ai/ha) was 70. For the same compound, the “Lambsquarters plant response rating” value (lambsquarters; 500 g ai/ha) was 90, the “Morningglory plant response rating (0 to 100 scale)” value (morningglory; [11]) was 0 and the “Plant response rating, Morningglory” value (morningglory; [12]) was 20. For the same compound, the “Morningglory plant response rating” value (morningglory; 125 g ai/ha) was 20, the “Morningglory plant response rating” value (morningglory; 500 g ai/ha) was 20 and the “Pigweed plant response rating (0 to 100 scale)” value (pigweed; [11]) was 30. The “Plant response rating, Pigweed” value (pigweed; [12]) was 100, the “Pigweed plant response rating” value (pigweed; 125 g ai/ha) was 40 and the “Pigweed plant response rating” value (pigweed; 500 g ai/ha) was 90. For the same compound, the “Rice plant response rating (0 to 100 scale)” value (rice [2]; 125 g ai/ha, 0 = no effect, 100 = complete control) was 40, the “Plant response rating, Rice” value (rice [2]; 500 g ai/ha, visual rating 0-100, 0 no effect, 100 complete control) was 70 and the “Velvetleaf plant response rating (0 to 100 scale)” value (velvetleaf; [11]) was 0. For the same compound, the “Plant response rating, Velvetleaf” value (velvetleaf; [12]) was 10, the “Velvetleaf plant response rating” value (velvetleaf; 125 g ai/ha) was 10 and the “Velvetleaf plant response rating” value (velvetleaf; 500 g ai/ha) was 20. The “Blackgrass plant response rating” value (blackgrass; 125 g ai/ha) was 0, the “Blackgrass plant response rating” value (blackgrass; 500 g ai/ha) was 10 and the “Wheat plant response rating” value (wheat; 125 g ai/ha) was 0. The “Wheat plant response rating” value (wheat; 500 g ai/ha) was 0, the “Oat, Wild plant response rating” value (wild oat; 125 g ai/ha) was 20 and the “Oat, Wild plant response rating” value (wild oat; 500 g ai/ha) was 30. The “Rice plant response rating” value (rice [3]) was 80, the “Sedge, Umbrella plant response rating” value [4] was 80 and the “Ducksalad plant response rating” value (ducksalad [5]) was 90. For the same compound, the “Barnyardgrass plant response rating” value (barnyardgrass [6]) was 80, the “Rice plant response rating” value (rice [7]; [13]) was 0 and the “Rice plant response rating” value (rice [7]; [14]) was 0. For the same compound, the “Rice plant response rating” value (rice [7]; [15]) was 0, the “Plant response rating, Rice” value (rice [7]; [16]) was 0 and the “Sedge, Umbrella plant response rating” value [8, 13] was 10. The “Sedge, Umbrella plant response rating” value [8, 14] was 20, the “Sedge, Umbrella plant response rating” value [8, 15] was 80 and the “Plant response rating, Sedge, Umbrella” value [8, 16] was 85. For the same compound, the “Ducksalad plant response rating” value (ducksalad [9]; [13]) was 0, the “Ducksalad plant response rating” value (ducksalad [9]; [14]) was 0 and the “Ducksalad plant response rating” value (ducksalad [9]; [15]) was 0. For the same compound, the “Plant response rating, Ducksalad” value (ducksalad [9]; [16]) was 80, the “Barnyardgrass plant response rating” value (barnyardgrass [10]; [13]) was 0 and the “Barnyardgrass plant response rating” value (barnyardgrass [10]; 125 g ai/ha, scale of 0 to 100, 0 is no effect, 100 is complete control) was 0. For the same compound, the “Barnyardgrass plant response rating” value (barnyardgrass [10]; [15]) was 0 and the “Plant response rating, Barnyardgrass” value (barnyardgrass [10]; [16]) was 0.
